# Assay results from ChEMBL document CHEMBL1124130 (J Med Chem, 1988).
# pIC50: −log10 of the molar value.
# Assays:
# [1] = biological target: T1, Muscarinic acetylcholine receptor M1 (Rattus norvegicus, UniProt P08482); experiment: biochemical
# T1 sequence (P08482 whole entry): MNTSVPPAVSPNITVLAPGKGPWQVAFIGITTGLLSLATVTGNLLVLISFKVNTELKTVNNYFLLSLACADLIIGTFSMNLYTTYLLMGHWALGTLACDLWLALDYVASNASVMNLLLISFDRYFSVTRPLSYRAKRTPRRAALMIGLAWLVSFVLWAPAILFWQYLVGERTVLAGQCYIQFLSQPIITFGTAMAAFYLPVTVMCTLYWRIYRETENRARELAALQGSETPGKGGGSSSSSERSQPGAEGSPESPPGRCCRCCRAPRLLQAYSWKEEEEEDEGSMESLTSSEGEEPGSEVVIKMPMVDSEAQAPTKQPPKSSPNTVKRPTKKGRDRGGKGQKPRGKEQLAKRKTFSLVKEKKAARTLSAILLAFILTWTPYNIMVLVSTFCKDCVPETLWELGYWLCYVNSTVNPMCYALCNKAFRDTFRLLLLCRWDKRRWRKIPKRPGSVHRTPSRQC
# Description: Binding affinity towards Muscarinic acetylcholine receptor M1 of cerebral cortex
# [2] = biological target: T2, Muscarinic acetylcholine receptor M2 (Rattus norvegicus, UniProt P10980); experiment: Binding affinity towards muscarinic receptor of gastric fundus containing Muscarinic acetylcholine receptor M2; type: tissue-based, Stomach
# T2 sequence (P10980 whole entry): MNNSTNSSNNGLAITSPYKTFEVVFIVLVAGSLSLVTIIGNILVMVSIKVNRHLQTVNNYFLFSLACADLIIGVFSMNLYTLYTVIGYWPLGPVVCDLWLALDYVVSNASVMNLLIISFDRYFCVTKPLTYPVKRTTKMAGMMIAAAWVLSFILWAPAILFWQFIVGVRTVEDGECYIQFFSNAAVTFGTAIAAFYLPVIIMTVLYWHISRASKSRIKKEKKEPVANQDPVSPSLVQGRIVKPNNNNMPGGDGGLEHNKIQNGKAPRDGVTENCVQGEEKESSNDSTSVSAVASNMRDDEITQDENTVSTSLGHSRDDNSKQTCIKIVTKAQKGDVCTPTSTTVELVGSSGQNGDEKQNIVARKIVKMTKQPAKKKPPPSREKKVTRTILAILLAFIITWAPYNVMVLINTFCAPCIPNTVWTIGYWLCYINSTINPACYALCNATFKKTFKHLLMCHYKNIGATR
# [3] = biological target: T1, Muscarinic acetylcholine receptor M1; experiment: Binding affinity towards muscarinic receptor of cerebral cortex containing Muscarinic acetylcholine receptor M1; type: tissue-based
# [4] = Partition coefficient (log P) at pH 7.4; type: physicochemical; details: octanol/water
Compound,pIC50 [1],pIC50 [2],pIC50 [3],logD [4]
CN1CCC(CC(=O)N2c3ccccc3C(=O)Nc3cccnc32)CC1,7.15,6.15,–,–
CN1CCCCC1CC(=O)N1c2ccccc2C(=O)Nc2cccnc21 (stereo not drawn),–,8.10,8.00,–
CN1CCN(NC(=O)N2c3ccccc3C(=O)Nc3cccnc32)CC1,7.22,6.05,–,–
CN1CCC(OC(=O)N2c3ccccc3C(=O)Nc3cccnc32)CC1,7.00,6.05,–,–
CN(C)CCC(=O)N1c2ccccc2C(=O)Nc2cccnc21,–,6.70,6.70,–
CN(C)CCCC(=O)N1c2ccccc2C(=O)Nc2cccnc21,–,7.00,7.30,–
CN1CCN(C(=O)N2c3ccccc3C(=O)Nc3cccnc32)CC1,6.82,6.22,–,–
CN1CCN(CC(=O)N2c3ccccc3NC(=O)c3cscc32)CC1,7.30,6.46,–,-0.15
CN(C)CC(=O)N1c2ccccc2C(=O)Nc2cccnc21,5.82,6.15,–,–
CN1CCC(NC(=O)N2c3ccccc3C(=O)Nc3cccnc32)CC1,6.70,5.92,–,–
CN1CCN(CC(=O)N2c3ccccc3NC(=O)c3ccccc32)CC1,7.64,7.00,–,0.11
CN1CCN(CC(=O)N2c3ccccc3NC(=O)c3cccnc32)CC1,6.52,5.52,–,-0.42
CN1CCN(CCC(=O)N2c3ccccc3C(=O)Nc3cccnc32)CC1,–,4.92,5.00,–
CN(C)CCCCC(=O)N1c2ccccc2C(=O)Nc2cccnc21,6.22,6.30,–,–
CN1CCCC(CC(=O)N2c3ccccc3C(=O)Nc3cccnc32)CC1 (stereo not drawn),–,6.82,7.00,–
CN1CCC(CC(=O)N2c3ccccc3C(=O)Nc3cccnc32)C1 (stereo not drawn),–,7.30,7.70,–
CN1CCCC(CC(=O)N2c3ccccc3C(=O)Nc3cccnc32)C1 (stereo not drawn),–,6.92,7.00,–
CN1CCN(CC(=O)N2c3ccccc3C(=O)Nc3cccnc32)CC1 [PIRENZEPINE],–,–,–,-0.64
